# Results as given in publication PMC4754833, “Rilpivirine analogs potently inhibit drug-resistant HIV-1 mutants” (Retrovirology, 2016).
# Experiments:
# HIV-1 RT mutant M184I = test: single round infection assay, M184I; type: cell-based
# Method: (§1) The human osteosarcoma cell line, HOS, was obtained from Dr. Richard Schwartz (Michigan State University, East Lansing, MI) and grown in Dulbecco’s modified Eagle’s medium (Invitrogen, Carlsbad, CA) supplemented with 5 % (v/v) fetal bovine serum, 5 % newborn calf serum, and penicillin (50 units/ml) plus streptomycin (50 µg/ml; Quality Biological, Gaithersburg, MD). Virion production and single-round infectivity assays were used to determine antiviral activity (IC50 values) of the compounds as previously described.
# pNLNgoMIVR-ΔEnv.LUC has been described previously. The RT open reading frame was removed from pNLNgoMIVR-ΔEnv.LUC (digestion with SpeI and SalI) and inserted between the SpeI and SalI sites of pBluescript II KS+. Using that construct as the wild-type template, we prepared the following HIV-1 RT mutants using the QuikChange II XL (Stratagene, La Jolla, CA) site-directed mutagenesis protocol kit: L100I, K103N, Y181C, Y188L, H221Y, K103N/Y181C, G190A, G190S, M230L, P236L, L100I/K103N, K103N/P225H, V106A/G190A/F227L, V106A, L234I, V106A/F227L, V106A/L234I, V106A/F227L/L234I, E40K, D67E, K101E, V111A, E138K, M184I, M184V, K101E/M184I, K101E/M184V, E138K/M184I, E138K/M184V, K101P, Y181I, and K101P/V179I. The following sense oligonucleotides were used with matching cognate antisense oligonucleotides (not shown) (Integrated DNA Technologies, Coralville, IA) in the mutagenesis: L100I, 5′-[…]-3′; L100I 2-103, 5′-[…]-3′; K103N, 5′-[…]-3′; Y181C, 5′-[…]-3′; Y188L, 5′-[…]-3′; H221Y, 5′-[…]-3′; G190A, 5′-[…]-3′; G190S, 5′-[…]-3′; P225H, 5′-[…]-3′; F227, 5′-[…]-3′; M230L, 5′-[…]-3′; P236L, 5′-[…]-3′; V106A, 5′-[…]-3′; L234I, 5′-[…]-3′; E40K, 5′-[…]-3′; D67E, 5′-[…]-3′; K101E, 5′-[…]-3′; V111A, 5′-[…]-3′; E138K, 5′-[…]-3′; M184I, 5′-[…]-3′; M184V, 5′-[…]-3′; K101P, 5′-[…]-3′; Y181I, 5′-[…]-3′; K101P/V179I, 5′-[…]-3′. The double mutants K103N/Y181C, K103N/P225H, and L100I/K103N were made using the previously generated K103N mutant and the appropriate oligonucleotides to add the second mutation, Y181C, P225, and L100I respectively. The double mutants V106A/F227L and V106A/L234I were prepared using the previously generated V106A mutant and the appropriate oligonucleotides to add the second mutation, F227L and L234I, respectively. The double mutants K101E/M184I and K101E/M184V were constructed using the previously generated K101E mutant and the appropriate oligonucleotides to add the second mutation, M184I and M184V, respectively. […]
# (§2) 10.1186/s12977-016-0244-2 The IC50 values (nM) of RPV and the RPV analogs were determined against the NNRTI resistant mutants were measured by using a single round infection assay, n = 4. The concentrations (nM) are measured by reductions in luciferase reporter activity followed by the standard deviations. […]
# HIV-1 RT mutant V111A = test: single round infection assay, V111A; type: cell-based; details: Human immunodeficiency virus 1, V111A; ± SD, n=4
# Method: as §1
# (§3) pNLNgoMIVR-ΔEnv.LUC has been described previously. The RT open reading frame was removed from pNLNgoMIVR-ΔEnv.LUC (digestion with SpeI and SalI) and inserted between the SpeI and SalI sites of pBluescript II KS+. Using that construct as the wild-type template, we prepared the following HIV-1 RT mutants using the QuikChange II XL (Stratagene, La Jolla, CA) site-directed mutagenesis protocol kit: L100I, K103N, Y181C, Y188L, H221Y, K103N/Y181C, G190A, G190S, M230L, P236L, L100I/K103N, K103N/P225H, V106A/G190A/F227L, V106A, L234I, V106A/F227L, V106A/L234I, V106A/F227L/L234I, E40K, D67E, K101E, V111A, E138K, M184I, M184V, K101E/M184I, K101E/M184V, E138K/M184I, E138K/M184V, K101P, Y181I, and K101P/V179I. The following sense oligonucleotides were used with matching cognate antisense oligonucleotides (not shown) (Integrated DNA Technologies, Coralville, IA) in the mutagenesis: L100I, 5′-[…]-3′; L100I 2-103, 5′-[…]-3′; K103N, 5′-[…]-3′; Y181C, 5′-[…]-3′; Y188L, 5′-[…]-3′; H221Y, 5′-[…]-3′; G190A, 5′-[…]-3′; G190S, 5′-[…]-3′; P225H, 5′-[…]-3′; F227, 5′-[…]-3′; M230L, 5′-[…]-3′; P236L, 5′-[…]-3′; V106A, 5′-[…]-3′; L234I, 5′-[…]-3′; E40K, 5′-[…]-3′; D67E, 5′-[…]-3′; K101E, 5′-[…]-3′; V111A, 5′-[…]-3′; E138K, 5′-[…]-3′; M184I, 5′-[…]-3′; M184V, 5′-[…]-3′; K101P, 5′-[…]-3′; Y181I, 5′-[…]-3′; K101P/V179I, 5′-[…]-3′. The double mutants K103N/Y181C, K103N/P225H, and L100I/K103N were made using the previously generated K103N mutant and the appropriate oligonucleotides to add the second mutation, Y181C, P225, and L100I respectively. The double mutants V106A/F227L and V106A/L234I were prepared using the previously generated V106A mutant and the appropriate oligonucleotides to add the second mutation, F227L and L234I, respectively. The double mutants K101E/M184I and K101E/M184V were constructed using the previously generated K101E mutant and the appropriate oligonucleotides to add the second mutation, M184I and M184V, respectively. The double mutants E138K/M184I and E138K/M184V were constructed using the previously generated E138K mutant and the appropriate oligonucleotides for the second mutation, M184I and M184V, respectively. The triple mutant V106A/F227L/L234I was made using the previously generated V106A/F227L double mutant and the appropriate oligonucleotides for the third mutation, L234I. The triple mutant V106A/G190A/F227L was constructed in a series of steps using the previously generated V106A mutant and the appropriate oligonucleotides for the second mutation, G190A, to generate the double mutant V106A/G190A, and then the triple mutant was made using double mutant V106A/G190A and oligonucleotides for the third mutation, F227L. […]
# as §2
# HIV-1 RT mutant E40K = test: single round infection assay, E40K; type: cell-based; details: for fold-change of IC50 of the mutant relative to WT: E40K vs WT
# Method: as §1
# pNLNgoMIVR-ΔEnv.LUC has been described previously. The RT open reading frame was removed from pNLNgoMIVR-ΔEnv.LUC (digestion with SpeI and SalI) and inserted between the SpeI and SalI sites of pBluescript II KS+. Using that construct as the wild-type template, we prepared the following HIV-1 RT mutants using the QuikChange II XL (Stratagene, La Jolla, CA) site-directed mutagenesis protocol kit: L100I, K103N, Y181C, Y188L, H221Y, K103N/Y181C, G190A, G190S, M230L, P236L, L100I/K103N, K103N/P225H, V106A/G190A/F227L, V106A, L234I, V106A/F227L, V106A/L234I, V106A/F227L/L234I, E40K, D67E, K101E, V111A, E138K, M184I, M184V, K101E/M184I, K101E/M184V, E138K/M184I, E138K/M184V, K101P, Y181I, and K101P/V179I. The following sense oligonucleotides were used with matching cognate antisense oligonucleotides (not shown) (Integrated DNA Technologies, Coralville, IA) in the mutagenesis: L100I, 5′-[…]-3′; L100I 2-103, 5′-[…]-3′; K103N, 5′-[…]-3′; Y181C, 5′-[…]-3′; Y188L, 5′-[…]-3′; H221Y, 5′-[…]-3′; G190A, 5′-[…]-3′; G190S, 5′-[…]-3′; P225H, 5′-[…]-3′; F227, 5′-[…]-3′; M230L, 5′-[…]-3′; P236L, 5′-[…]-3′; V106A, 5′-[…]-3′; L234I, 5′-[…]-3′; E40K, 5′-[…]-3′; D67E, 5′-[…]-3′; K101E, 5′-[…]-3′; V111A, 5′-[…]-3′; E138K, 5′-[…]-3′; M184I, 5′-[…]-3′; M184V, 5′-[…]-3′; K101P, 5′-[…]-3′; Y181I, 5′-[…]-3′; K101P/V179I, 5′-[…]-3′. The double mutants K103N/Y181C, K103N/P225H, and L100I/K103N were made using the previously generated K103N mutant and the appropriate oligonucleotides to add the second mutation, Y181C, P225, and L100I respectively. The double mutants V106A/F227L and V106A/L234I were prepared using the previously generated V106A mutant and the appropriate oligonucleotides to add the second mutation, F227L and L234I, respectively. The double mutants K101E/M184I and K101E/M184V were constructed using the previously generated K101E mutant and the appropriate oligonucleotides to add the second mutation, M184I and M184V, respectively. The double mutants E138K/M184I and E138K/M184V were constructed using the previously generated E138K mutant and the appropriate oligonucleotides for the second mutation, M184I and M184V, respectively. The triple mutant V106A/F227L/L234I was made using the previously generated V106A/F227L double mutant and the appropriate oligonucleotides for the third mutation, L234I. The triple mutant V106A/G190A/F227L was constructed in a series of steps using the previously generated V106A mutant and the appropriate oligonucleotides for the second mutation, G190A, to generate the double mutant V106A/G190A, and then the triple mutant was made using double mutant V106A/G190A and oligonucleotides for the third mutation, F227L. The DNA sequence of each construct was verified by DNA sequence determination. The sequences encoding the mutant RTs were then subcloned into pNLNgoMIVR-ΔEnv.LUC (between the KpnI and SalI sites) to produce the mutant HIV-1 constructs. These DNA sequences were also checked independently by DNA sequence determination.
# as §2
# HIV-1 RT mutant M184V = test: single round infection assay, M184V; type: cell-based
# Method: as §1, §3, §2
# HIV-1 RT mutant Y188L = test system: HIV-1 RT mutant Y188L; set-up: method as in PMID 23217210; details: previous study; cited from earlier work
# [1] = test system: HIV-1 RT mutant V106A/L234I; test: single round infection assay, V106A/L234I; type: cell-based; details: V106A/L234I vs WT
# Method: as §1
# pNLNgoMIVR-ΔEnv.LUC has been described previously. The RT open reading frame was removed from pNLNgoMIVR-ΔEnv.LUC (digestion with SpeI and SalI) and inserted between the SpeI and SalI sites of pBluescript II KS+. Using that construct as the wild-type template, we prepared the following HIV-1 RT mutants using the QuikChange II XL (Stratagene, La Jolla, CA) site-directed mutagenesis protocol kit: L100I, K103N, Y181C, Y188L, H221Y, K103N/Y181C, G190A, G190S, M230L, P236L, L100I/K103N, K103N/P225H, V106A/G190A/F227L, V106A, L234I, V106A/F227L, V106A/L234I, V106A/F227L/L234I, E40K, D67E, K101E, V111A, E138K, M184I, M184V, K101E/M184I, K101E/M184V, E138K/M184I, E138K/M184V, K101P, Y181I, and K101P/V179I. […]
# as §2
Structure (SMILES),fold-change of IC50 of the mutant relative to WT (HIV-1 RT mutant E40K),IC50 (HIV-1 RT mutant Y188L),further results
Cc1cc(/C=C/C#N)cc(C)c1Nc1nc(Nc2ccc(F)cc2)c2nc[nH]c2n1 [compound 17],3,,"IC50 (HIV-1 RT mutant M184I; Human immunodeficiency virus 1, M184I, ± SD, n=4): 1.7 ± 0.3 nM; IC50 (HIV-1 RT mutant V111A): 0.5 ± 0.17 nM; IC50 (HIV-1 RT mutant E40K; Human immunodeficiency virus 1, E40K, ± SD, n=4): 6.4 nM; IC50 (HIV-1 RT mutant M184V; Human immunodeficiency virus 1, M184V, ± SD, n=4): 1.6 ± 0.26 nM"
Cc1cc(/C=C/C#N)cc(C)c1-n1cnc2cnc(Nc3ccc(C#N)cc3)nc21 [compound 27],,< 10 nM,
Cc1cc(/C=C/C#N)cc(C)c1Nc1ncc(N)c(Nc2ccc(C#N)cc2)n1 [compound 9],2,,
COc1ccc(Nc2nc(Nc3c(C)cc(/C=C/C#N)cc3C)nc3[nH]cnc23)cc1 [compound 16],< 2,,fold-change of IC50 of the mutant relative to WT (HIV-1 RT mutant M184I; M184I vs WT): < 2; fold-change of IC50 of the mutant relative to WT (HIV-1 RT mutant M184V; M184V vs WT): < 2
Cc1cc(/C=C/C#N)cc(C)c1Nc1nc(Nc2ccc(C#N)cc2)ncc1[N+](=O)[O-] [compound 6],2,< 10 nM,
CC(=O)c1ccc(Nc2nc(Nc3c(C)cc(/C=C/C#N)cc3C)nc3[nH]cnc23)cc1 [compound 14],< 2,,fold-change of IC50 of the mutant relative to WT [1]: 3
